Measurements: patent US4272437A, “Antibacterial agents, and 4-thio azetidinone intermediates” (priority 1979, dated 1981)
≈ marks a conversion by molar mass, not a printed value. Like-named read-outs stand apart in the source and are kept apart here.

What was measured:
Pr. mirabilis A-9900 = assay: MIC, tube dilution, Proteus mirabilis A9900; assay type: cell-based; conditions: Proteus mirabilis, A9900, Proteus mirabilis A9900; overnight 37° C.; read-out: Minimum Inhibitory Concentration (M.I.C.)
Description: (§1) Representative compounds of the present invention were subjected to in vitro antibiotic screening against a variety of microorganisms.

Str. pyogenes A-9604 = assay: MIC, tube dilution, Streptococcus pyogenes A9604; assay type: cell-based; conditions: overnight 37° C., Nutrient Broth; for MIC: Streptococcus pyogenes, A9604, Str. pyogenes A9604, read-out: Minimum Inhibitory Concentration (M.I.C.)
Description: as §1

[1] = tested on: Staph. aureus (Pen-Res) A-9606; assay: MIC, tube dilution, Staphylococcus aureus A9606 (Pen-Res); assay type: cell-based; conditions: Staphylococcus aureus, overnight 37° C.
Description: as §1

Ps. aeruginosa A-21213 = assay: MIC, tube dilution, Pseudomonas aeruginosa A21213; assay type: cell-based; conditions: overnight 37° C., read-out: Minimum Inhibitory Concentration (M.I.C.)
Description: as §1

K. pneumoniae A-15130 = assay: MIC, tube dilution, Klebsiella pneumoniae A15130; assay type: cell-based; conditions: Klebsiella pneumoniae, A15130, K. pneumoniae A15130; overnight 37° C.; read-out: Minimum Inhibitory Concentration (M.I.C.)
Description: as §1

Ent. cloacae A-9659 = assay: MIC, tube dilution, Enterobacter cloacae A9659; assay type: cell-based; conditions: Enterobacter cloacae, A9659, Enterobacter cloacae A9659; overnight 37° C.; read-out: Minimum Inhibitory Concentration (M.I.C.)
Description: as §1

Pr. morganii A-15153 = assay: MIC, tube dilution, Proteus morganii A15153; assay type: cell-based; conditions: Morganella morganii, A15153, Proteus morganii A15153; overnight 37° C.; read-out: Minimum Inhibitory Concentration (M.I.C.)
Description: as §1

Proteus rettgeri A21203 = assay: MIC, tube dilution, Proteus rettgeri A21203; assay type: cell-based; conditions: Providencia rettgeri, overnight 37° C., read-out: Minimum Inhibitory Concentration (M.I.C.)
Description: as §1

Staph. aureus A-9537 = assay: MIC, tube dilution, Staphylococcus aureus A9537; assay type: cell-based; conditions: overnight 37° C., Nutrient Broth; for MIC: Staphylococcus aureus, A9537, Staph. aureus A9537, read-out: Minimum Inhibitory Concentration (M.I.C.)
Description: as §1

E. coli A-15119 = assay: MIC, tube dilution, Escherichia coli A15119; assay type: cell-based; conditions: Escherichia coli, A15119, E. coli A15119; overnight 37° C.; read-out: Minimum Inhibitory Concentration (M.I.C.)
Description: as §1

[2] = tested on: Staph. aureus A-9537 and 50% serum; assay: MIC, tube dilution, Staph. aureus A9537 + 50% serum; assay type: cell-based, Staphylococcus aureus; conditions: Staphylococcus aureus, overnight 37° C., read-out: Minimum Inhibitory Concentration (M.I.C.)
Description: as §1

Ser. marcescens A-20019 = assay: MIC, tube dilution, Serratia marcescens A20019; assay type: cell-based; conditions: Serratia marcescens, A20019, Serratia marcescens A20019; overnight 37° C.; read-out: Minimum Inhibitory Concentration (M.I.C.)
Description: as §1

Pr. vulgaris A-9716 = assay: MIC, tube dilution, Proteus vulgaris / Proteus mirabilis A9716; assay type: cell-based, Proteus vulgaris (name changed to Proteus mirabilis); conditions: Proteus vulgaris, overnight 37° C.
Description: as §1

E. coli A-20341-1 = assay: MIC, tube dilution, Escherichia coli A20341-1; assay type: cell-based
Description: as §1

Ent. cloacae A-9656 = assay: MIC, tube dilution, Enterobacter cloacae A9656; assay type: cell-based; conditions: overnight 37° C., read-out: Minimum Inhibitory Concentration (M.I.C.)
Description: as §1

[3] = tested on: Staph. aureus (Meth-Res) A-15097; assay: MIC, tube dilution, Staphylococcus aureus A15097 (Meth-Res); assay type: cell-based; conditions: Staphylococcus aureus, overnight 37° C.
Description: as §1

Ps. aeruginosa A-9843A = assay: MIC, tube dilution, Pseudomonas aeruginosa A9843A; assay type: cell-based; conditions: Pseudomonas aeruginosa, A9843A, read-out: Minimum Inhibitory Concentration (M.I.C.), Pseudomonas aeruginosa A9843A; overnight 37° C.
Description: as §1

[4] = tested on: Klebsiella species A20468; assay: MIC, tube dilution, Klebsiella species A20468; assay type: cell-based; conditions: Klebsiella species (K. pneumoniae) A20468; overnight 37° C.; read-out: Minimum Inhibitory Concentration (M.I.C.)
Description: as §1

Str. pneumoniae A-9585 = assay: MIC, tube dilution, Streptococcus pneumoniae A9585; assay type: cell-based; conditions: overnight 37° C., Nutrient Broth; for MIC: Streptococcus pneumoniae, A9585, Str. pneumoniae A9585, read-out: Minimum Inhibitory Concentration (M.I.C.)
Description: as §1

Str. faecalis A-20688 = assay: MIC, tube dilution, Streptococcus faecalis A20688; assay type: cell-based; conditions: Enterococcus faecalis, A20688, Str. faecalis A20688; overnight 37° C.; read-out: Minimum Inhibitory Concentration (M.I.C.)
Description: as §1

[5] = read-out: Minimum Inhibitory Concentration (M.I.C.), Staph. aureus A9606 (Pen-Res)
[6] = A9716, read-out: Minimum Inhibitory Concentration (M.I.C.), Proteus vulgaris / Proteus mirabilis A9716
[7] = Escherichia coli, A203411; E. coli A20341-1; overnight 37° C.; read-out: Minimum Inhibitory Concentration (M.I.C.)
[8] = read-out: Minimum Inhibitory Concentration (M.I.C.), Staph. aureus A15097 (Meth-Res)

Compound `O=C(O)C1=CSC2CC(=O)N12` (centres unmarked) [Example 19, Penem-3-carboxylic Acid] has an MIC (Pr. mirabilis A-9900) of 16 µg/mL (≈ 93.5 µM), an MIC (Str. pyogenes A-9604) of 2 µg/mL (≈ 11.7 µM) and an MIC ([1]; Staph. aureus A9606 (Pen-Res), read-out: Minimum Inhibitory Concentration (M.I.C.)) of 8 µg/mL (≈ 46.7 µM). The MIC (Ps. aeruginosa A-21213; Pseudomonas aeruginosa, A21213, Pseudomonas aeruginosa A21213) was 125 µg/mL (≈ 730 µM), the MIC (K. pneumoniae A-15130) was 16 µg/mL (≈ 93.5 µM) and the MIC (Ent. cloacae A-9659) was 16 µg/mL (≈ 93.5 µM). The MIC (Pr. morganii A-15153) was 16 µg/mL (≈ 93.5 µM), the MIC (Proteus rettgeri A21203; A21203, Proteus rettgeri A21203) was 16 µg/mL (≈ 93.5 µM) and the MIC (Staph. aureus A-9537) was 4 µg/mL (≈ 23.4 µM). The MIC (E. coli A-15119) was 8 µg/mL (≈ 46.7 µM), the MIC [2] was 63 µg/mL and the MIC (Ser. marcescens A-20019) was 16 µg/mL (≈ 93.5 µM). For the same compound, the MIC (Pr. vulgaris A-9716; A9716, Proteus vulgaris / Proteus mirabilis A9716, read-out: Minimum Inhibitory Concentration (M.I.C.)) was 16 µg/mL (≈ 93.5 µM), the MIC (E. coli A-20341-1; Escherichia coli, A203411, E. coli A20341-1; overnight 37° C.; read-out: Minimum Inhibitory Concentration (M.I.C.)) was 16 µg/mL (≈ 93.5 µM) and the MIC (Ent. cloacae A-9656; Enterobacter cloacae, A9656, Enterobacter cloacae A9656) was 16 µg/mL (≈ 93.5 µM). It also gave an MIC ([3]; Staph. aureus A15097 (Meth-Res), read-out: Minimum Inhibitory Concentration (M.I.C.)) of 63 µg/mL (≈ 368 µM), an MIC (Ps. aeruginosa A-9843A) of 63 µg/mL (≈ 368 µM) and an MIC [4] of over 125 µg/mL. For the same compound, the MIC (Str. pneumoniae A-9585) was 0.5 µg/mL (≈ 2.92 µM) and the MIC (Str. faecalis A-20688) was 125 µg/mL (≈ 730 µM).
With `CCCCC1=C(C(=O)[O-])N2C(=O)C[C@H]2S1.[Na+]` [Preparation 24, Sodium 2-butylpenem-3-carboxylate] the MIC (Pr. mirabilis A-9900) was 2 µg/mL, the MIC (Str. pyogenes A-9604) was 1 µg/mL and the MIC [1, 5] was 4 µg/mL. It also gave an MIC (Ps. aeruginosa A-21213; Pseudomonas aeruginosa A21213) of 125 µg/mL, an MIC (K. pneumoniae A-15130) of 63 µg/mL and an MIC (Ent. cloacae A-9659) of 63 µg/mL. For the same compound, the MIC (Pr. morganii A-15153) was 16 µg/mL, the MIC (Proteus rettgeri A21203; Proteus rettgeri A21203) was 8 µg/mL and the MIC (Staph. aureus A-9537) was 0.13 µg/mL. The MIC (E. coli A-15119) was 16 µg/mL, the MIC [2] was over 63 µg/mL and the MIC (Ser. marcescens A-20019) was 32 µg/mL. The MIC (Pr. vulgaris A-9716; [6]) was 2 µg/mL, the MIC (E. coli A-20341-1; [7]) was over 125 µg/mL and the MIC (Ent. cloacae A-9656; Enterobacter cloacae A9656) was 63 µg/mL. It also gave an MIC [3, 8] of 125 µg/mL, an MIC (Ps. aeruginosa A-9843A) of 125 µg/mL and an MIC [4] of over 125 µg/mL. For the same compound, the MIC (Str. pneumoniae A-9585) was 0.25 µg/mL and the MIC (Str. faecalis A-20688) was 63 µg/mL.
With `O=C(O)C1=C(Cc2cscn2)SC2CC(=O)N12` (centres unmarked) [Example 18, 2-(4'-Thiazolyl)methylpenem-3-carboxylic Acid] the MIC (Pr. mirabilis A-9900) was over 125 µg/mL, the MIC (Str. pyogenes A-9604) was over 125 µg/mL and the MIC [1, 5] was over 125 µg/mL. The MIC (Ps. aeruginosa A-21213; Pseudomonas aeruginosa A21213) was 125 µg/mL (≈ 466 µM), the MIC (K. pneumoniae A-15130) was over 125 µg/mL and the MIC (Ent. cloacae A-9659) was over 125 µg/mL. The MIC (Pr. morganii A-15153) was 125 µg/mL (≈ 466 µM), the MIC (Proteus rettgeri A21203; Proteus rettgeri A21203) was 125 µg/mL (≈ 466 µM) and the MIC (Staph. aureus A-9537) was 125 µg/mL (≈ 466 µM). The MIC (E. coli A-15119) was over 125 µg/mL, the MIC [2] was over 63 µg/mL and the MIC (Ser. marcescens A-20019) was over 125 µg/mL. For the same compound, the MIC (Pr. vulgaris A-9716; [6]) was 125 µg/mL (≈ 466 µM), the MIC (E. coli A-20341-1; [7]) was over 125 µg/mL and the MIC (Ent. cloacae A-9656; Enterobacter cloacae A9656) was over 125 µg/mL. The MIC [3, 8] was over 125 µg/mL, the MIC (Ps. aeruginosa A-9843A) was 125 µg/mL (≈ 466 µM) and the MIC [4] was 125 µg/mL (≈ 466 µM). For the same compound, the MIC (Str. pneumoniae A-9585) was 125 µg/mL (≈ 466 µM) and the MIC (Str. faecalis A-20688) was over 125 µg/mL.
In the case of `O=C([O-])C1=C(Cc2ccccc2)S[C@@H]2CC(=O)N12.[Na+]` [Preparation 21, Sodium 2-Benzylpenem-3-carboxylate], the MIC (Pr. mirabilis A-9900) is reported as 1 µg/mL, the “Minimum Inhibitory Concentration (M.I.C.)” value (Str. pyogenes A-9604; Str. pyogenes A9604) is reported as 8 µg/mL and the MIC [1, 5] is reported as 1 µg/mL. The MIC (Ps. aeruginosa A-21213; Pseudomonas aeruginosa A21213) was 125 µg/mL, the MIC (K. pneumoniae A-15130) was 125 µg/mL and the MIC (Ent. cloacae A-9659) was 63 µg/mL. For the same compound, the MIC (Pr. morganii A-15153) was 4 µg/mL, the MIC (Proteus rettgeri A21203; Proteus rettgeri A21203) was 4 µg/mL and the “Minimum Inhibitory Concentration (M.I.C.)” value (Staph. aureus A-9537; Staph. aureus A9537) was “.06 µg/mL”. It also gave an MIC (E. coli A-15119) of 4 µg/mL, an MIC [2] of over 63 µg/mL and an MIC (Ser. marcescens A-20019) of 63 µg/mL. The MIC (Pr. vulgaris A-9716; [6]) was 2 µg/mL, the MIC (E. coli A-20341-1; [7]) was 125 µg/mL and the MIC (Ent. cloacae A-9656; Enterobacter cloacae A9656) was 32 µg/mL. It also gave an MIC [3, 8] of 32 µg/mL, an MIC (Ps. aeruginosa A-9843A) of 125 µg/mL and an MIC [4] of 125 µg/mL. The “Minimum Inhibitory Concentration (M.I.C.)” value (Str. pneumoniae A-9585; Str. pneumoniae A9585) was 2 µg/mL and the MIC (Str. faecalis A-20688) was 32 µg/mL.
